Experiment: xn = mol fraction of the nth substance listed
Settings: 101 kPa

CC(C)O + CCCCCC[n+]1ccn(C)c1.F[B-](F)(F)F
x1 = 1
Settings | viscosity [mPa·s]
293.15 K | 2.36
303.15 K | 1.77
313.15 K | 1.33
323.15 K | 1.01

CCCCCC[n+]1ccn(C)c1.F[B-](F)(F)F + CC(C)O
viscosity [mPa·s]
Settings | x2 = 0 | x2 = 0.1493 | x2 = 0.2289 | x2 = 0.2992 | x2 = 0.3752 | x2 = 0.4942 | x2 = 0.5845 | x2 = 0.7067 | x2 = 0.762 | x2 = 0.9165
293.15 K | 230 | 113 | 78 | 57.1 | 41 | 24.9 | 16.8 | 10.05 | 7.82 | –
303.15 K | 130 | – | 48.2 | 36.1 | – | 16.9 | – | – | – | 2.65
313.15 K | 78 | 42.6 | 31.7 | – | 18.8 | 12.2 | 8.53 | 5.15 | – | 1.96
323.15 K | – | 28.1 | – | – | 14.6 | 9.3 | 6.62 | 3.95 | 3.04 | 1.5
333.15 K | – | – | 16.3 | 13.2 | – | 7.04 | 5.06 | 3.05 | – | 1.02

— a compilation of properties of binary mixtures (doi:10.1016/j.molliq.2012.02.004)
